Measured values taken from patent US20230331655A1, “HYDROXYN[…] AND METHODS OF USE THEREOF” (UNIVERSITY OF MARYLAND, BALTIMORE, priority 2020, published 2023).
Where two headings read alike, the source gives them in different places.

Assays:
NMDARs = details: read-out: Ki (binding / inhibition of NMDARs); cited from earlier work
[1] = pharmacokinetics in plasma and brain after intraperitoneal administration (UPLC-MS/MS); type: in vivo, mouse; design: key to Brain Concentration over time, sex-dependent difference / Plasma Concentration over time, sex-dependent difference: F, female; M, male; NS, not statistically different; details: for Kp / half-life / Tmax: CD-1, mouse, ip; for Kp: brain and plasma; for half-life: terminal half-life; for Brain Concentration over time, sex-dependent difference / Plasma Concentration over time, sex-dependent difference / Brain Total exposure (AUC), sex-dependent difference / Plasma Total exposure (AUC), sex-dependent difference: female vs male mice; for Brain Concentration over time, sex-dependent difference / Plasma Concentration over time, sex-dependent difference: ANOVA, Holm-Šídák post-hoc; for Brain Total exposure (AUC), sex-dependent difference / Plasma Total exposure (AUC), sex-dependent difference: t-test; for Tmax: earliest sampling time 10 min
Experimental: Male and female CD-1 mice (Charles Rivers Laboratories, Raleigh, NC, USA), 8-11 weeks old at the time of testing, were habituated to the University of Maryland (Baltimore, MD, USA) animal facility for at least one week prior to testing. Mice were group housed 4-5 per cage with a constant 12-hour light cycle (lights on/off at 07:00/19:00). Food and water were available ad libitum. All experiments were performed during the light phase. All animal studies were approved by the University of Maryland School of Medicine Institutional Animal Care and Use Committee and conducted in accordance with the National Institutes of Health Guide for the Care and Use of Laboratory Animals.
(2R,6R)-HNK hydrochloride, (2S,6S)-HNK hydrochloride, (2R,6S)-HNK, (2S,6R)-HNK, (2R,5R)-HNK, (2S,5S)-HNK, (2R,5S)-HNK, (2S,5R)-HNK, (2R,4R)-HNK, (2S,4S)-HNK, (2R,4S)-HNK, and (2S,4R)-HNK hydrochloride were synthesized at the National Center for Advancing Translation Sciences (National Institutes of Health, Rockville, MD, USA) using methods previously described in Morris et al., Org Lett 17:4572-4575 (2017), which is incorporated by reference herein in its entirety. (5R)-methyl-(2R,6R)-HNK was obtained from Organix Inc. (Woburn, MA, USA) or from the National Center for Advancing Translational Sciences (Rockville, MD, USA); synthesis and characterization are described in the Supplemental Information. All compounds were dissolved in 20% (w/v) cyclodextrin (Sigma Aldrich, USA) in saline and administered intraperitoneally (i.p.) in a volume of 7.5 ml/kg.
At 10 min (0.167 h), 30 min (0.5 h), 1 h, 2 h, and 4 h post-treatment, mice were deeply anesthetized (3.5% isoflurane for approximately 2 min). Trunk blood was collected into 1.5-ml polypropylene tubes containing 30 μl of disodium EDTA (0.5 M, pH 8.0) and kept on ice until plasma collection (<30 min). Brains were then removed, flash-frozen in isopentane, and stored at −80° C. until analysis. Blood was centrifuged at 8000×g for 6 min at 4° C. to obtain plasma. Plasma was collected into clean microcentrifuge tubes and stored at −80° C. until analysis.
Ultra-performance liquid chromatography-tandem mass spectrometry (UPLC-MS/MS) methods were developed and optimized to determine the concentration of each HNK in mouse plasma and brain samples following systemic administration. Mass spectrometric analysis was performed on a Waters Xevo TQ-S triple quadrupole instrument using electrospray ionization in positive mode with the selected reaction monitoring. The separation of HNKs from endogenous components was performed on a Waters Acquity UPLC with 0.5 ml/min flow rate and gradient elution. The mobile phase A and B were 0.1% formic acid in water and 0.1% formic acid in acetonitrile, respectively. Plasma and brain concentrations of (2R,6R)-, (2S,6S)-, (2R,4S)-, and (2S,4R)-HNK were determined by hydrophilic interaction liquid chromatography-tandem mass spectrometry (HILIC UPLC-MS/MS) using a BEH amide column (1.7μ, 2.1×50 mm). Plasma and brain concentrations of (2R,6S)-, (2S,6R)-, (2R,5R)- (2S,5S)-, (2R,5S)-, (2S,5R)-, (2R,4R)-, and (2S,4S)-HNK; and (5R)-methyl-(2R,6R)-HNK were determined by reversed phase UPLC-MS/MS based upon a previously described protocol with several modifications using a BEH C18 column ([…], 2.1×50 mm). See Moaddel et al., Talanta 82:1892-1904 (2010), and Zanos et al., Nature 533:481-486 ([…]), both of which are incorporated by reference herein in their entireties.
The gradient for HILIC UPLC method was: 0-0.2 min 98% B; 0.2-1.4 min 98% to 35% B; 1.4-1.8 min 35% to 10% B, 1.9-2.4 min 98% B. The gradient for BEH Cis UPLC method was: 0-0.2 min 1% B; 0.2-1.4 min 1% to 35% B; 1.4-1.8 min 35% to 98% B, 1.8-2.2 min 98% B, 2.3 min 1% B. The analytical run time of the UPLC methods was 2.5 min. The calibration standards and quality control samples were prepared in blank mouse plasma and brain homogenate. Calibration standards ranged from 5.0-5000 ng/ml. […]

[2] = i.p.; earlier study; cited from earlier work
mice = details: i.p.; earlier study; cited from earlier work
[3] = female mice, i.p. 5 mg/kg, read-out: B:P ratio (brain to plasma AUC ratio)
[4] = male mice, i.p. 5 mg/kg, read-out: B:P ratio (brain to plasma AUC ratio)
[5] = brain, female mice, i.p. 5 mg/kg, read-out: t1/2 Brain (converted)
[6] = brain, male mice, i.p. 5 mg/kg, read-out: t1/2 Brain (converted)
[7] = plasma, female mice, i.p. 5 mg/kg, read-out: t1/2 Plasma (converted)
[8] = plasma, male mice, i.p. 5 mg/kg, read-out: t1/2 Plasma (converted)
[9] = male mice, equivalent systemic doses

Structure (SMILES) | Ki (NMDARs) | Kp [1, 3] | Kp [1, 4] | half-life [1, 5] | half-life [1, 6] | half-life [1, 7] | half-life [1, 8] | Brain Concentration over time, sex-dependent difference ([1]; i.p. 5 mg/kg) | Plasma Concentration over time, sex-dependent difference ([1]; i.p. 5 mg/kg) | Brain Total exposure (AUC), sex-dependent difference ([1]; i.p. 5 mg/kg) | Plasma Total exposure (AUC), sex-dependent difference ([1]; i.p. 5 mg/kg) | lowest dose reducing escape failures in the learned helplessness test [2] | lowest dose reducing forced swim test immobility time (mice) | brain concentration at 4 h post-treatment ([1]; females, but not males, i.p. 5 mg/kg, LLOQ 5.0 ng/ml) | peak and total brain levels, lower compared to equivalent dosing with (2R,6R)-HNK ([1]; male mice) | Cmax and AUC, fold greater than those of (2R,6R)-HNK [1, 9] | peak and total brain levels, fold greater than those of (2R,6R)-HNK [1, 9] | Tmax ([1]; brain, both sexes, i.p. 5 mg/kg, read-out: Tmax in the brain (converted)) | Tmax ([1]; plasma, both sexes, i.p. 5 mg/kg, read-out: Tmax in the plasma (converted)) | Kp ([1]; both sexes, male and female mice, i.p. 5 mg/kg, read-out: brain to plasma AUC (exposure) ratio)
N[C@@]1(c2ccccc2Cl)CCC[C@@H](O)C1=O [(2R,6R)-HNK, (2R,6R)-hydroxynorketamine] | > 100 µM | 1.3 | 1.3 | 36 min | 36 min | 36 min | 36 min | F > M at 10, 30 min | F > M at 10, 30 min | F > M | F > M | 3 mg/kg | 5 mg/kg |  |  |  |  |  |  | 
N[C@@]1(c2ccccc2Cl)CCC[C@H](O)C1=O [(2R,6S)-HNK] |  | 0.7 | 0.6 | 24 min | 42 min |  | 54 min | NS | main effect of sex, M > F | M > F | M > F |  |  | below LLOQs | two-fold |  |  |  |  | 
N[C@]1(c2ccccc2Cl)CCC[C@@H](O)C1=O [(2S,6R)-HNK] |  | 1.4 | 1.2 |  |  |  | 42 min | main effect of sex, F > M | NS | F > M | F > M |  |  |  | three-fold |  |  |  |  | 
N[C@]1(c2ccccc2Cl)CCC[C@H](O)C1=O [(2S,6S)-HNK, (2S,6S)-hydroxynorketamine] | 7.34 to 21.2 µM | 1.2 |  | 42 min | 42 min |  | 42 min | F > M at 10, 30 min | main effect of sex, F > M | F > M | F > M | 75 mg/kg | 25 mg/kg |  |  | 2-3 fold | 2-3 fold |  |  | 
C[C@@H]1CC[C@@](N)(c2ccccc2Cl)C(=O)[C@@H]1O.Cl [(5R)-methyl-(2R,6R)-HNK, (2R,5R,6R)-2-amino-2-(2-chlorophenyl)-6-hydroxy-5-methylcyclohexan-1-one hydrochloride] |  | 0.4 | 0.4 | 42 min | 48 min | 48 min | 48 min | NS | main effect of sex, M > F | M > F | M > F |  |  |  |  |  |  | 10 min | 10 min | 0.4
